In PMC10866072, “Design, synthesis, molecular modelling and biological evaluation of novel 6-amino-5-cyano-2-thiopyrimidine derivatives as potent anticancer agents against leukemia and apoptotic inducers” (Journal of Enzyme Inhibition and Medicinal Chemistry, 2024):

What was measured:
SK-OV-3 = type: cell-based; settings: Homo sapiens, one dose 10^-5 M, 48 h
KM12 = type: cell-based; settings: Homo sapiens, one dose 10^-5 M, 48 h
PC-3 = type: cell-based; settings: Homo sapiens, one dose 10^-5 M, 48 h
MOLT-4 = type: cell-based; settings: Homo sapiens, one dose 10^-5 M, 48 h, read-out: % growth
SF-539 = type: cell-based; settings: Homo sapiens, one dose 10^-5 M, 48 h
NCI-H460 = type: cell-based; settings: Homo sapiens, one dose 10^-5 M, 48 h, read-out: % growth
SK-MEL-2 = type: cell-based; settings: Homo sapiens, one dose 10^-5 M, 48 h
OVCAR-8 = type: cell-based; settings: Homo sapiens, one dose 10^-5 M, 48 h
HT29 = type: cell-based; settings: Homo sapiens, HT-29, one dose 10^-5 M, 48 h
ACHN = type: cell-based; settings: Homo sapiens, one dose 10^-5 M, 48 h
M14 = type: cell-based; settings: Homo sapiens, one dose 10^-5 M, 48 h
MDA-MB-231/ATCC = type: cell-based; settings: Homo sapiens, one dose 10^-5 M, 48 h
[1] = system: full NCI 60 cell lines panel
Experimental: 60 different human tumour cell lines-representing leukaemia, melanoma, and malignancies of the lung, colon, brain, ovary, breast, prostate, and kidney are used in the operation of this screen.
Compounds were dissolved in DMSO: glycerol (91) and were kept in a freezer at −70° C. The synthesised compounds were introduced to the culture at a single concentration of 1 0 ^−5 M and left to incubate for 48 h. A protein-binding dye called sulforhodamine B was used to measure end points (SRB).
A mean graph showing the % growth of treated cells is used to represent the one-dose data. The value provided for the One-dose assay represents growth in comparison to the no-drug control and to the number of cells at time zero. This enables the identification of lethality (values between 0 and 100) as well as growth inhibition (values less than 0). A value of 100, for instance, indicates no growth inhibition. A value of 40 would indicate 60% growth inhibition. A value of 0 indicates no net growth over the course of the experiment. A value of −40 would indicate 40% lethality.
Furthermore, the average sensitivity of all cell lines to the compound is termed as the full panel mean graph midpoints (MG-MID). The complete panel mean graph midpoints refers to the average sensitivity of all cell lines to the chemical (MG-MID). A measure of a compound’s selectivity for a given cell line is the ratio created by dividing the full panel mean graph midpoints (MG-MID) concentration by the individual subpanel MG-MID concentrations (obtained as the average sensitivity of all the cell lines in a given subpanel to the test compound).

CAKI-1 = type: cell-based; settings: Homo sapiens, CAKI-1, 48 h, one dose 10^-5 M, 48 h
SR = type: cell-based; settings: Homo sapiens, one dose 10^-5 M, 48 h
HL-60(TB) = type: cell-based; settings: Homo sapiens, one dose 10^-5 M, 48 h
HOP-62 = type: cell-based; settings: Homo sapiens, one dose 10^-5 M, 48 h
MDA-MB-435 = type: cell-based; settings: Homo sapiens, one dose 10^-5 M, 48 h, read-out: % growth
NCI-H226 = type: cell-based; settings: one dose 10^-5 M, 48 h
MCF7 = type: cell-based; settings: Homo sapiens, one dose 10^-5 M, 48 h, read-out: % growth
SF-295 = type: cell-based; settings: Homo sapiens, one dose 10^-5 M, 48 h
RPMI-8226 = type: cell-based; settings: Homo sapiens, one dose 10^-5 M, 48 h
HOP-92 = type: cell-based; settings: one dose 10^-5 M, 48 h
NCI-H23 = type: cell-based; settings: Homo sapiens, one dose 10^-5 M, 48 h, read-out: % growth
HCC-2998 = type: cell-based; settings: Homo sapiens, one dose 10^-5 M, 48 h
UACC-62 = type: cell-based; settings: Homo sapiens, one dose 10^-5 M, 48 h
RXF 393 = type: cell-based; settings: Homo sapiens, RXF 393, 48 h, one dose 10^-5 M, 48 h, read-out: % growth
SK-MEL-28 = type: cell-based; settings: Homo sapiens, one dose 10^-5 M, 48 h
786-0 = type: cell-based; settings: Homo sapiens, one dose 10^-5 M, 48 h
U251 = type: cell-based; settings: Homo sapiens, U-251, one dose 10^-5 M, 48 h
CCRF-CEM = type: cell-based; settings: Homo sapiens, one dose 10^-5 M, 48 h
IGROV1 = type: cell-based; settings: Homo sapiens, IGROV-1, one dose 10^-5 M, 48 h, read-out: % growth
MDA-MB-468 = type: cell-based; settings: Homo sapiens, one dose 10^-5 M, 48 h
T-47D = type: cell-based; settings: Homo sapiens, T47D, one dose 10^-5 M, 48 h, read-out: % growth
SF-268 = type: cell-based; settings: Homo sapiens, one dose 10^-5 M, 48 h, read-out: % growth
NCI-H522 = type: cell-based; settings: Homo sapiens, one dose 10^-5 M, 48 h
HS 578T = type: cell-based; settings: one dose 10^-5 M, 48 h, HS 578T
SNB-75 = type: cell-based; settings: one dose 10^-5 M, 48 h
OVCAR-3 = type: cell-based; settings: Homo sapiens, one dose 10^-5 M, 48 h
OVCAR-4 = type: cell-based; settings: Homo sapiens, one dose 10^-5 M, 48 h
MALME-3M = type: cell-based; settings: Homo sapiens, one dose 10^-5 M, 48 h
SK-MEL-5 = type: cell-based; settings: Homo sapiens, one dose 10^-5 M, 48 h, read-out: % growth
UO-31 = type: cell-based; settings: Homo sapiens, UO-31, 48 h, one dose 10^-5 M, 48 h
DU-145 = type: cell-based; settings: Homo sapiens, one dose 10^-5 M, 48 h
UACC-257 = type: cell-based; settings: Homo sapiens, one dose 10^-5 M, 48 h
TK-10 = type: cell-based; settings: Homo sapiens, one dose 10^-5 M, 48 h
A498 = type: cell-based; settings: Homo sapiens, one dose 10^-5 M, 48 h
EKVX = type: cell-based; settings: Homo sapiens, one dose 10^-5 M, 48 h
SNB-19 = type: cell-based; settings: Homo sapiens, one dose 10^-5 M, 48 h, read-out: % growth
LOX IMVI = type: cell-based; settings: Homo sapiens, one dose 10^-5 M, 48 h, read-out: % growth
SN12C = type: cell-based, human; settings: Homo sapiens, one dose 10^-5 M, 48 h
OVCAR-5 = type: cell-based; settings: Homo sapiens, one dose 10^-5 M, 48 h
K-562 = type: cell-based; settings: Homo sapiens, K562, one dose 10^-5 M, 48 h
HCT-116 = type: cell-based; settings: Homo sapiens, one dose 10^-5 M, 48 h, read-out: % growth
SW-620 = type: cell-based; settings: Homo sapiens, one dose 10^-5 M, 48 h
A549/ATCC = type: cell-based; settings: Homo sapiens, one dose 10^-5 M, 48 h
HCT-15 = type: cell-based; settings: Homo sapiens, one dose 10^-5 M, 48 h, read-out: % growth

## N=C(NN=Cc1ccccc1)c1c(N)nc(S)nc1-c1ccc(Cl)cc1 [Compound 4g, 4-amino-6–(4-chlorophenyl)-2-mercapto-N'-[phenylmethylene]pyrimidine-5-carboximido hydrazide]
SK-OV-3
  % growth at 10 µM: 81%
KM12
  % growth at 10 µM: 62.3%
PC-3
  percent cell growth at 10 µM: 52.6%
MOLT-4
  activity at 10 µM: 58.5%
SF-539
  % growth at 10 µM: 11.4%
NCI-H460
  activity at 10 µM: 16.5%
SK-MEL-2
  % growth at 10 µM: 92.7%
OVCAR-8
  % growth of cells at 10 µM: 20.4%
HT29
  % growth at 10 µM: 78.5%
ACHN
  % growth at 10 µM: 23.3%
M14
  % growth at 10 µM: 70.6%
MDA-MB-231/ATCC
  % growth at 10 µM: 1.22%
[1]; Homo sapiens, 60 cell, 48 h, read-out: Mean % growth
  activity at 10 µM: 50.8%
[1]; one dose, range over those cell lines
  % growth values, cell lines with lethal effect: −0.44%to-34.30
CAKI-1
  % growth at 10 µM: 31.2%
SR
  percent cell growth at 10 µM: 46.4%
HL-60(TB)
  % growth at 10 µM: 97%
HOP-62
  % growth at 10 µM: 30.2%
MDA-MB-435
  activity at 10 µM: 77.3%
NCI-H226; Homo sapiens
  % growth at 10 µM: -0.68%
NCI-H226
  % growth: -0.68%
MCF7
  activity at 10 µM: 42.2%
SF-295
  % cell growth at 10 µM: 35.6%
RPMI-8226
  % growth at 10 µM: 51.4%
HOP-92; Homo sapiens
  % growth at 10 µM: -0.44%
HOP-92
  % growth: -0.44%
NCI-H23
  activity at 10 µM: 64.3%
HCC-2998
  % growth at 10 µM: 93.1%
UACC-62
  % growth at 10 µM: 78.1%
RXF 393
  activity at 10 µM: 8.96%
SK-MEL-28
  % cell growth at 10 µM: 88.5%
786-0
  % growth at 10 µM: 41.7%
U251
  % growth at 10 µM: 13.2%
CCRF-CEM
  % cell growth at 10 µM: 65%
IGROV1
  activity at 10 µM: 62.6%
MDA-MB-468
  percent cell growth at 10 µM: 49.7%
T-47D
  activity at 10 µM: 49.4%
SF-268
  activity at 10 µM: 49.3%
NCI-H522
  % growth at 10 µM: 56.4%
HS 578T; Homo sapiens, read-out: % growth
  activity at 10 µM: -6.98%
HS 578T
  % growth: -6.98%
SNB-75; Homo sapiens
  % growth at 10 µM: -34.3%
SNB-75
  % growth: -34.30%
OVCAR-3
  % growth at 10 µM: 77.7%
OVCAR-4
  % growth at 10 µM: 37.5%
MALME-3M
  % growth at 10 µM: 52.1%
SK-MEL-5
  activity at 10 µM: 84.9%
UO-31
  % cell growth at 10 µM: 29.4%
DU-145
  % growth at 10 µM: 48.7%
UACC-257
  percent cell growth at 10 µM: 92.8%
TK-10
  % cell growth at 10 µM: 93.9%
A498
  % growth at 10 µM: 105%
EKVX
  % cell growth at 10 µM: 52.9%
SNB-19
  activity at 10 µM: 59.8%
LOX IMVI
  activity at 10 µM: 22.6%
SN12C
  % growth at 10 µM: 73.9%
OVCAR-5
  percent cell growth at 10 µM: 80.1%
K-562
  % growth at 10 µM: 52.4%
HCT-116
  activity at 10 µM: 30.6%
SW-620
  % growth at 10 µM: 76.3%
A549/ATCC
  % growth at 10 µM: 31.6%
HCT-15
  activity at 10 µM: 53.1%
